Like-named read-outs stand apart in the source and are kept apart here.
Tested on: stroke rats
[1] = 1 μmol/kg 5Ak after 4 hours from stroke onset, 1st day
[2] = 1 μmol/kg 5Ak after 4 hours from stroke onset, 2nd day
[3] = 1 μmol/kg 5Ak after 4 hours from stroke onset, 3rd day
[4] = 1 μmol/kg 5Ak after 4 hours from stroke onset, 4th day
[5] = 1 μmol/kg 5Ak after 4 hours from stroke onset, 5th day
[6] = 1 μmol/kg 5Ak after 4 hours from stroke onset, 6th day
[7] = 1 μmol/kg 5Ak after 6 hours from stroke onset, 1st day
[8] = 1 μmol/kg 5Ak after 6 hours from stroke onset, 2nd day
[9] = 1 μmol/kg 5Ak after 6 hours from stroke onset, 3rd day
[10] = 1 μmol/kg 5Ak after 6 hours from stroke onset, 4th day
[11] = 1 μmol/kg 5Ak after 6 hours from stroke onset, 5th day
[12] = 1 μmol/kg 5Ak after 6 hours from stroke onset, 6th day
[13] = 1 μmol/kg 5Ak after 24 hours from stroke onset, 1st day
[14] = 1 μmol/kg 5Ak after 24 hours from stroke onset, 2nd day
[15] = 1 μmol/kg 5Ak after 24 hours from stroke onset, 3rd day
[16] = 1 μmol/kg 5Ak after 24 hours from stroke onset, 4th day
[17] = 1 μmol/kg 5Ak after 24 hours from stroke onset, 5th day
[18] = 1 μmol/kg 5Ak after 24 hours from stroke onset, 6th day
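Note: male SD rats with thrombus-induced cerebral embolism via internal carotid artery, scored daily by Zealonga neurological deficit scale (0 no deficit to 5 death), lower score better.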

Procedure: The therapeutic effect was evaluated by neurological functional scores. The lower the score was, the better the therapeutic effect was. A 10% chloral hydrate solution was injected intraperitoneally into male SD rats at a dosage of 400 mg/kg body weight for anesthesia. A longitudinal incision was made at the center of the neck, and the right common carotid artery trunk was separated (about 3 cm in length). External carotid artery branches were each separated and ligated at the hyoid level, and the internal carotid artery was separated from the swollen part of the neck. The incision of the internal carotid artery and the proximal end of the common carotid artery were clipped respectively with noninvasive arterial clips, and the distal end of the external carotid artery was ligated. A catheter containing 0.5 mL thrombus suspension in normal saline was inserted in the external carotid artery trunk. When the clip on the internal carotid artery was released, the 0.5 mL thrombus suspension in normal saline in the catheter slowly flew from the external carotid artery to its proximal end, and then was injected into the arteries in brain through the internal carotid artery. Subsequently, the proximal end of the internal carotid artery was ligated, the arterial clips on the internal carotid artery and the common carotid artery were released, and blood flow was restored. After the wound was stitched up, 20,000 IU penicillin was intramuscularly injected for prevention from infection. […] Self-comparison was performed each day, and the neurological deficit degree was evaluated by the Zealonga method. A score of 0 indicated no sign of loss in neural function, 1 indicated the front limbs on the undamaged side could not stretch out, 2 indicated walking toward the undamaged side, 3 indicated tail-chasing walking in circles toward the undamaged side, 4 indicated involuntary walking with disturbance of consciousness, and 5 indicated death.

For C[C@H](NC(=O)[C@@H]1CCCN1)C(=O)N[C@@H](CCCCN)C(=O)NCCCC[C@H](NC(=O)[C@@H]1Cc2cc(O)c(O)cc2C(C)(C)N1)C(=O)O [Compound 5Ak, 3S-6,7-dihydroxy-1,1-dimethyl-1,2,3,4-tetrahydro-isoquinoline-3-acyl-Lys(Pro-Ala-Lys)], the “therapeutic effect, result in words” value (1 μmol/kg 5Ak after 4 hours from stroke onset) was “definite therapeutic effect”, the “Daily neural function scores, number of rats under 0 score” value [1] was 3 and the “Daily neural function scores, number of rats under 1 score” value [1] was 5. The “Daily neural function scores, number of rats under 2 scores” value [1] was 1, the “Daily neural function scores, number of rats under 3 scores” value [1] was 1 and the “Daily neural function scores, number of rats under 4 scores” value [1] was 0. For the same compound, the “Daily neural function scores, number of rats under 5 scores” value [1] was 0, the “Daily neural function scores, number of rats under 0 score” value [2] was 5 and the “Daily neural function scores, number of rats under 1 score” value [2] was 4. The “Daily neural function scores, number of rats under 2 scores” value [2] was 1, the “Daily neural function scores, number of rats under 3 scores” value [2] was 0 and the “Daily neural function scores, number of rats under 4 scores” value [2] was 0. For the same compound, the “Daily neural function scores, number of rats under 5 scores” value [2] was 0, the “Daily neural function scores, number of rats under 0 score” value [3] was 3 and the “Daily neural function scores, number of rats under 1 score” value [3] was 6. For the same compound, the “Daily neural function scores, number of rats under 2 scores” value [3] was 1, the “Daily neural function scores, number of rats under 3 scores” value [3] was 0 and the “Daily neural function scores, number of rats under 4 scores” value [3] was 0. The “Daily neural function scores, number of rats under 5 scores” value [3] was 0, the “Daily neural function scores, number of rats under 0 score” value [4] was 8 and the “Daily neural function scores, number of rats under 1 score” value [4] was 1. The “Daily neural function scores, number of rats under 2 scores” value [4] was 1, the “Daily neural function scores, number of rats under 3 scores” value [4] was 0 and the “Daily neural function scores, number of rats under 4 scores” value [4] was 0. For the same compound, the “Daily neural function scores, number of rats under 5 scores” value [4] was 0, the “Daily neural function scores, number of rats under 0 score” value [5] was 6 and the “Daily neural function scores, number of rats under 1 score” value [5] was 4. The “Daily neural function scores, number of rats under 2 scores” value [5] was 0, the “Daily neural function scores, number of rats under 3 scores” value [5] was 0 and the “Daily neural function scores, number of rats under 4 scores” value [5] was 0. For the same compound, the “Daily neural function scores, number of rats under 5 scores” value [5] was 0, the “Daily neural function scores, number of rats under 0 score” value [6] was 8 and the “Daily neural function scores, number of rats under 1 score” value [6] was 2. For the same compound, the “Daily neural function scores, number of rats under 2 scores” value [6] was 0, the “Daily neural function scores, number of rats under 3 scores” value [6] was 0 and the “Daily neural function scores, number of rats under 4 scores” value [6] was 0. The “Daily neural function scores, number of rats under 5 scores” value [6] was 0, the “therapeutic effect, result in words” value (1 μmol/kg 5Ak after 6 hours from stroke onset) was “definite therapeutic effect” and the “Daily neural function scores, number of rats under 0 score” value [7] was 0. The “Daily neural function scores, number of rats under 1 score” value [7] was 4, the “Daily neural function scores, number of rats under 2 scores” value [7] was 4 and the “Daily neural function scores, number of rats under 3 scores” value [7] was 2. The “Daily neural function scores, number of rats under 4 scores” value [7] was 0, the “Daily neural function scores, number of rats under 5 scores” value [7] was 0 and the “Daily neural function scores, number of rats under 0 score” value [8] was 0. The “Daily neural function scores, number of rats under 1 score” value [8] was 7, the “Daily neural function scores, number of rats under 2 scores” value [8] was 2 and the “Daily neural function scores, number of rats under 3 scores” value [8] was 1. The “Daily neural function scores, number of rats under 4 scores” value [8] was 0, the “Daily neural function scores, number of rats under 5 scores” value [8] was 0 and the “Daily neural function scores, number of rats under 0 score” value [9] was 1. The “Daily neural function scores, number of rats under 1 score” value [9] was 6, the “Daily neural function scores, number of rats under 2 scores” value [9] was 2 and the “Daily neural function scores, number of rats under 3 scores” value [9] was 1. For the same compound, the “Daily neural function scores, number of rats under 4 scores” value [9] was 0, the “Daily neural function scores, number of rats under 5 scores” value [9] was 0 and the “Daily neural function scores, number of rats under 0 score” value [10] was 4. The “Daily neural function scores, number of rats under 1 score” value [10] was 4, the “Daily neural function scores, number of rats under 2 scores” value [10] was 1 and the “Daily neural function scores, number of rats under 3 scores” value [10] was 0. The “Daily neural function scores, number of rats under 4 scores” value [10] was 0, the “Daily neural function scores, number of rats under 5 scores” value [10] was 1 and the “Daily neural function scores, number of rats under 0 score” value [11] was 7. For the same compound, the “Daily neural function scores, number of rats under 1 score” value [11] was 2, the “Daily neural function scores, number of rats under 2 scores” value [11] was 0 and the “Daily neural function scores, number of rats under 3 scores” value [11] was 0. For the same compound, the “Daily neural function scores, number of rats under 4 scores” value [11] was 0, the “Daily neural function scores, number of rats under 5 scores” value [11] was 0 and the “Daily neural function scores, number of rats under 0 score” value [12] was 6. For the same compound, the “Daily neural function scores, number of rats under 1 score” value [12] was 3, the “Daily neural function scores, number of rats under 2 scores” value [12] was 0 and the “Daily neural function scores, number of rats under 3 scores” value [12] was 0. The “Daily neural function scores, number of rats under 4 scores” value [12] was 0, the “Daily neural function scores, number of rats under 5 scores” value [12] was 0 and the “therapeutic effect, result in words” value (1 μmol/kg 5Ak after 24 hours from stroke onset) was “definite therapeutic effect”. The “Daily neural function scores, number of rats under 0 score” value [13] was 1, the “Daily neural function scores, number of rats under 1 score” value [13] was 4 and the “Daily neural function scores, number of rats under 2 scores” value [13] was 0. The “Daily neural function scores, number of rats under 3 scores” value [13] was 2, the “Daily neural function scores, number of rats under 4 scores” value [13] was 1 and the “Daily neural function scores, number of rats under 5 scores” value [13] was 0. For the same compound, the “Daily neural function scores, number of rats under 0 score” value [14] was 2, the “Daily neural function scores, number of rats under 1 score” value [14] was 3 and the “Daily neural function scores, number of rats under 2 scores” value [14] was 3. The “Daily neural function scores, number of rats under 3 scores” value [14] was 1, the “Daily neural function scores, number of rats under 4 scores” value [14] was 0 and the “Daily neural function scores, number of rats under 5 scores” value [14] was 0. The “Daily neural function scores, number of rats under 0 score” value [15] was 3, the “Daily neural function scores, number of rats under 1 score” value [15] was 2 and the “Daily neural function scores, number of rats under 2 scores” value [15] was 3. For the same compound, the “Daily neural function scores, number of rats under 3 scores” value [15] was 0, the “Daily neural function scores, number of rats under 4 scores” value [15] was 0 and the “Daily neural function scores, number of rats under 5 scores” value [15] was 0. The “Daily neural function scores, number of rats under 0 score” value [16] was 2, the “Daily neural function scores, number of rats under 1 score” value [16] was 3 and the “Daily neural function scores, number of rats under 2 scores” value [16] was 3. The “Daily neural function scores, number of rats under 3 scores” value [16] was 0, the “Daily neural function scores, number of rats under 4 scores” value [16] was 0 and the “Daily neural function scores, number of rats under 5 scores” value [16] was 0. The “Daily neural function scores, number of rats under 0 score” value [17] was 4, the “Daily neural function scores, number of rats under 1 score” value [17] was 3 and the “Daily neural function scores, number of rats under 2 scores” value [17] was 1. The “Daily neural function scores, number of rats under 3 scores” value [17] was 0, the “Daily neural function scores, number of rats under 4 scores” value [17] was 0 and the “Daily neural function scores, number of rats under 5 scores” value [17] was 0. The “Daily neural function scores, number of rats under 0 score” value [18] was 3, the “Daily neural function scores, number of rats under 1 score” value [18] was 4 and the “Daily neural function scores, number of rats under 2 scores” value [18] was 1. For the same compound, the “Daily neural function scores, number of rats under 3 scores” value [18] was 0, the “Daily neural function scores, number of rats under 4 scores” value [18] was 0 and the “Daily neural function scores, number of rats under 5 scores” value [18] was 0. The “rats that died during successive 6-day treatment” value (1 μmol/kg 5Ak once per day after 4 hours from stroke onset, ten rats) was “no death occurred”, the “rats that died during successive 6-day treatment” value (1 μmol/kg 5Ak once per day after 6 hours from stroke onset, n=10) was “one” and the “rats that died during successive 6-day treatment” value (1 μmol/kg 5Ak once per day after 24 hours from stroke onset, 8 rats) was “no death occurred”.
